In US6706732B1, “Nasal preparation of guanidinoimino quinoline derivatives” (Takeda Chemical Industries, Ltd., priority 1999, dated 2004):

Tests used:
[1] = Serum concentration of Compound B after nasal administration to rats; type: in vivo, male SD rat; conditions: rat
Method: A male SD rat (8 weeks old) was anesthetized with ether and each of the preparations of Formulation Examples 1 to 6 was given into the left nasal cavity. The dose of Compound B was 0.75 mg/kg (Formulation Example 1), 1.5 mg/kg (Formulation Example 2), 3.0 mg/kg (Formulation Example 3), 6.0 mg/kg (Formulation Example 4), 1.5 mg/kg (Formulation Example 5) and 3.0 mg/kg (Formulation Example 6). Each of the preparations of Formulation Examples 1 to 4 was taken as a portion of about 10 mg, which was filled in a polyethylene tube (INTRAMEDIC PE90, BECKTON DICKINSON) and the polyethylene tube was inserted into the nasal cavity, where it was sprayed with 2 cc of air. Each of the preparations of Formulation Examples 5 and 6 was given as a 20 μl aliquot via a micropipette (*EXCELMYDEGI* 8000, D-5, SANKO JUNYAKU). The preparation of Comparative 1 was given intravenously into a femoral vein of the rat (dose: 1 mg/kg).
After administration of the preparation, blood was taken at a certain interval via a tail vain and examined for the serum concentration of Compound B.

melting point	in vivo absorption [1]	SMILES
204 °C (dec.)	–	Cc1ccnc2c1C(=NNC(=N)N)CC(c1ccccc1Cl)C2.Cl (centres unmarked)
202 to 204 °C	–	CS(=O)(=O)O.Cc1ccc(F)cc1C1CC(=NNC(=N)N)c2c(C)ccnc2C1 (centres unmarked)
268 °C (dec.)	–	Cc1ccnc2c1C(=NNC(=N)N)CC(c1cc(F)ccc1Cl)C2.Cl (centres unmarked)
290 °C (dec.)	–	Cc1ccnc2c1C(=NNC(=N)N)CC(c1cc(F)ccc1F)C2.Cl (centres unmarked)
201 to 203 °C	–	Cc1cc(C)c2c(n1)CC(c1cc(F)ccc1C)CC2=NNC(=N)N.Cl (centres unmarked)
194 to 195 °C	rapid in vivo absorption	CS(=O)(=O)O.Cc1ccnc2c1C(=NNC(=N)N)CC(c1ccccc1Cl)C2 (single isomer, unassigned; (-)) [Compound B, (−)-7-(2-chlorophenyl)-5-guanidinoimino-4-methyl-5,6,7,8-tetrahydroquinoline methanesulfonate]
202 to 205 °C	–	Cc1ccc(F)cc1C1CC(=NNC(=N)N)c2c(C)ccnc2C1.Cl (centres unmarked) [Compound C]
192 to 198 °C	–	Cc1ccc(F)cc1C1CC(=NNC(=N)N)c2c(C)ccnc2C1.Cl (centres unmarked) [Compound E]
209 to 212 °C	–	CS(=O)(=O)O.Cc1ccnc2c1C(=NNC(=N)N)CC(c1cc(F)ccc1Cl)C2 (centres unmarked) [Compound H]
206 to 209 °C	–	CS(=O)(=O)O.Cc1ccnc2c1C(=NNC(=N)N)CC(c1cc(F)ccc1Cl)C2 (centres unmarked) [Compound I]
